# Experimental data published in ChEMBL document CHEMBL1201862, “PubChem BioAssay data set” (2004).
# Activity calls are given as the source filed them.
# Tests used:
# fMet-Leu-Phe receptor = target: T1, fMet-Leu-Phe receptor (Homo sapiens, UniProt P21462); test: formyl peptide receptor binders – dose response (AID 519); format: functional
# T1 sequence (P21462 whole entry): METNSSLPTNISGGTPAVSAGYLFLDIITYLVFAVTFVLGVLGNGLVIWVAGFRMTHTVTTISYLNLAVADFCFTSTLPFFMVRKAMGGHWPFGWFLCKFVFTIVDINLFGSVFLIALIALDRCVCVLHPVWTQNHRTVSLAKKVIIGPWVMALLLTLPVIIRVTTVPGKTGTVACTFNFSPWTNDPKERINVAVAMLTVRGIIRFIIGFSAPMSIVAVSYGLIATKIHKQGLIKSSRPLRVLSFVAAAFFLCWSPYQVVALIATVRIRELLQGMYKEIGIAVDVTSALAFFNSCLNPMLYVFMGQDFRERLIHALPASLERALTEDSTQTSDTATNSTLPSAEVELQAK
# [1] = target: T2, Rac GTPase-activating protein 1 (Homo sapiens, UniProt Q9H0H5); test: blockers of MgcRacGAP-driven Rac1 GTP hydrolysis – biochemical, ADP Hunter fluorescence, primary and confirmatory, confirmation (AID 624330); format: functional
# T2 sequence (Q9H0H5 whole entry): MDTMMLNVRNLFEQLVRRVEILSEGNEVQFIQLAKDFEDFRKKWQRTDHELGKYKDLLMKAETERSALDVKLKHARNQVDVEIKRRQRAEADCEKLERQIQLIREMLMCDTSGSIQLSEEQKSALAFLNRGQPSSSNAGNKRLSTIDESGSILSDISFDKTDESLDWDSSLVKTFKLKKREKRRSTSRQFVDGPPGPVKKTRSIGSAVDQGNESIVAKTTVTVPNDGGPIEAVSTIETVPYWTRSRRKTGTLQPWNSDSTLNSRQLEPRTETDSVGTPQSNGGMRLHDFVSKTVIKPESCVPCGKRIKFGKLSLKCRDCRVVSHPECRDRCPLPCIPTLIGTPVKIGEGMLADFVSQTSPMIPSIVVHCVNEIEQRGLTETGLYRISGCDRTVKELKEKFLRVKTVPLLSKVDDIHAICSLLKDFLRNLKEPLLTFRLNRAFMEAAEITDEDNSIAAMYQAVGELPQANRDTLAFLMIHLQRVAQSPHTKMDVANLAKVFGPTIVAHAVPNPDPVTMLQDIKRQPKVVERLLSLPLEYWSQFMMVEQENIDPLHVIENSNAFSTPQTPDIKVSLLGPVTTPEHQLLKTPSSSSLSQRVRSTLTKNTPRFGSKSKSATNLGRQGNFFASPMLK
# Cytochrome P450 3A4 = Cytochrome P450 3A4 (Homo sapiens, UniProt P08684); settings: Potency;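 also: confirmatory qHTS run detecting inhibitors and substrates of CYP3A4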
# Cytochrome P450 3A4, sequence (P08684 whole entry): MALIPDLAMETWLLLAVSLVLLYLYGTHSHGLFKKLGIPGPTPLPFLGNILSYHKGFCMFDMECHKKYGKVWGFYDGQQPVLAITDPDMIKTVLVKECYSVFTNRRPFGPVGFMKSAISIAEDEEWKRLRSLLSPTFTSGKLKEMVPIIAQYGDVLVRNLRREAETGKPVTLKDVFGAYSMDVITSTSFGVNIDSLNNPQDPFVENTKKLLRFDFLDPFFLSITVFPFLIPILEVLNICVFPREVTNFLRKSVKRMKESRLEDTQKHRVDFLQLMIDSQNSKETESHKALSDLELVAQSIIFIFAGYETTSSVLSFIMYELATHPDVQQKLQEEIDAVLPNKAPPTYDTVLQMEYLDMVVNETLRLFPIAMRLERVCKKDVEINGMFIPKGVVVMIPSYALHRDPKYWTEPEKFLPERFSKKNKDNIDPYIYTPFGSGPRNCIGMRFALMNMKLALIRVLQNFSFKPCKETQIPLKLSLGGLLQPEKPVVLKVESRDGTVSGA
# [2] = Trypanosoma cruzi growth suppression in host cells – NIH3T3 host cells, beta-gal luminescence, confirmation (AID 2044); format: functional, cell-based;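 also: intracellular parasites grown in NIH/3T3 mouse fibroblasts as host cells; luminescent beta-galactosidase reporter signal from transgenic T. cruzi replicating inside host cells; inhibitors lower the luminescence signal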
# [3] = NIH3T3 cell viability loss – ATP luminescence, mouse fibroblasts, counter-screen, dose response (AID 2010); format: functional, cell-based;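 also: cells exposed to compound for about 90 hours before reading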
# cells [4] = test: cells
# [5] = viability loss in HepG2 hepatoma cells – cell-based, ATP luminescence, cherry-pick, activator set 2, cytotoxicity control, dose response (AID 1053143); format: functional
# cells [6] = format: functional, cell-based
# cells [7] = format: functional, cell-based; remark: listed apart in the source
# [8] = target: Disintegrin and metalloproteinase domain-containing protein 17 (Homo sapiens, UniProt P78536); test: exosite inhibitors of ADAM17, dose response, biochemical (AID 743260)
# Disintegrin and metalloproteinase domain-containing protein 17, sequence (P78536 whole entry, the tested form may be a part): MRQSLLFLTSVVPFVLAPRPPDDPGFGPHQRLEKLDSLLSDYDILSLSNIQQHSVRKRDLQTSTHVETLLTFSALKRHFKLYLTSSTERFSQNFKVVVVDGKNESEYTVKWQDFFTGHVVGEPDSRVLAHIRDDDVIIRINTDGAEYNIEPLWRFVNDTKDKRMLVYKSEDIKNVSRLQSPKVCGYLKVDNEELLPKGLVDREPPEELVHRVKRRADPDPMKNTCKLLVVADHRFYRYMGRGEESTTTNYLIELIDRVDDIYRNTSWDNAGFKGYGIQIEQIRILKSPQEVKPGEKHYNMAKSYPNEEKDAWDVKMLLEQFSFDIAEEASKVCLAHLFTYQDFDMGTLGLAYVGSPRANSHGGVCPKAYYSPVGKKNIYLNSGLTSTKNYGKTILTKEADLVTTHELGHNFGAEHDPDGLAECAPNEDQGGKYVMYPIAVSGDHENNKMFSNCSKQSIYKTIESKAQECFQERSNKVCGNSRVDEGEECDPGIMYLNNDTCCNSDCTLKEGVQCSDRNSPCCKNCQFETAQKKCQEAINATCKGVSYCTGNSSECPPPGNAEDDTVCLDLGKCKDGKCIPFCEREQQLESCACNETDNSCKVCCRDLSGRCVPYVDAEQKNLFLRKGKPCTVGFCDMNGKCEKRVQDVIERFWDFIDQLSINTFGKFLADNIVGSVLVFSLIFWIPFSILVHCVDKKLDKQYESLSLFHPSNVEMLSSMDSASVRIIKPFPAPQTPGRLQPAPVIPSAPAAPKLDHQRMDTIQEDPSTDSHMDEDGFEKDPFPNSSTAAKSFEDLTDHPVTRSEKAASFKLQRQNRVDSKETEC
# [9] = inhibition of ADAM10 peptide cleavage – biochemical, FRET peptide substrate, recombinant human ADAM10, selectivity assay for ADAM17 exosite inhibitor project, dose response (AID 743259);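 also: ADAM10 enzyme cleaving a FRET peptide substrate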
smiles,measurement,setting,value
CC(C)CN(CC(C)C)C(=O)CS(=O)(=O)Cc1ccccc1,Ki,fMet-Leu-Phe receptor,8.5 µM (active)
Cc1cc(-c2ccc(N)c(C)c2)ccc1N [ORTHOTOLIDINE],IC50,[1],12.2 µM (active)
same,AC50,Cytochrome P450 3A4,20 µM (inconclusive)
O=C(Nc1ccncc1)Nc1ccc(Cl)cc1Cl,EC50,[2],< 0.1 µM (active)
same,EC50,[3],> 60 µM (not active)
same,EC50,cells [4],0.079 µM (active)
Cc1ccc(C(=O)Nc2nc3ccc(S(C)(=O)=O)cc3s2)o1,AC50,[5],26 µM (active)
COc1ccc(CCNC(=O)c2cc(-c3ccco3)on2)cc1OC,EC50,cells [6],12.5 µM (active)
same,EC50,cells [7],> 350 µM (not active)
same,AC50,[5],26 µM (active)
COc1ccc(-n2c(Cc3cccn3C)nnc2SCC(=O)Nc2ccc(Cl)cc2)cc1,Ki,fMet-Leu-Phe receptor,32.9 µM (inactive)
O=C(/C=C\c1ccco1)Oc1cccc2cccnc12,AC50,[5],26 µM (active)
COc1ccccc1Oc1c(C)oc2cc(OC(=O)c3ccco3)ccc2c1=O,Ki,fMet-Leu-Phe receptor,19.4 µM (inactive)
CSc1ccc(CN2CCN(Cc3ccc([N+](=O)[O-])cc3)CC2)cc1,EC50,[2],< 0.1 µM (active)
same,EC50,[3],> 60 µM (inconclusive)
same,EC50,cells [4],0.135 µM (active)
O=C(CSc1nc2ccccc2c(=O)n1-c1ccccc1Cl)Nc1cccc(S(=O)(=O)N2CCOCC2)c1,IC50,[8],> 69.5 µM (inactive)
same,IC50,[9],> 69.5 µM (inactive)
